Values quoted from earlier work as cited in PubChem BioAssay AID977608.

Target: Cruzipain (Trypanosoma cruzi) (UniProt P25779)
Assay: protein-ligand inhibition affinities from structures – PDB-derived complexes (AID 977608)
Conditions: literature IC50, protein: cruzain, chain 3I06_A, PDB entry 3I06

IC50: 0.2 nM
SMILES: CCn1cnc2c(Nc3cc(F)cc(F)c3)nc(C=N)nc21
